Test results taken from ChEMBL document CHEMBL5729070, “Substituted pyrrolo[1,2-a]pyrazines and pyrrolo[1,2-a][1,4]diazepines as TREX1 inhibitors” (2022).
pIC50: −log10 of the molar value.

Experiment: Exonuclease Assay: To evaluate the effect of compounds on TREX1 activity, test compounds were serially diluted (11-point, 3-fold) from 10 mM stock solutions and delivered to 384-well low-volume assay plates in 80 nL DMSO using an acoustic dispenser. Next, 4 μL of human TREX1 (0.5 nM), or murine TREX1 (1 nM), diluted in assay buffer (20 mM Tris pH 7.5, 5 mM MgCl2, 100 μg/mL BSA, 0.002% Triton X-100, 2 mM DTT), was added to the assay plate. After incubating for 30 minutes, 4 μL of labeled DNA oligonucleotide (500 nM) in assay buffer was added to initiate TREX1 exonuclease activity. The reaction was allowed to proceed for 45 minutes at room temperature prior to the addition of 4 μL of 150 mM EDTA to halt TREX1 activity. Assay plates were equilibrated for an additional 30 minutes and read on an EnVision Plate Reader (Perkin Elmer) to measure fluorescence emission at 535 nm following excitation at 485 nm. Fluorescence was plotted as a function of log molar compound concentration and fit to four-parameter dose-response equation to determine compound IC50.

Row | pIC50 | SMILES | IC50
1 | > 6.00 | CC(C)C[C@H](C(=O)NCc1ccc(Cl)c(Cl)c1)N1CCC(C=[S+](C)([O-])c2ccccc2)N2C[C@H](N)C[C@H]2C1=O (some centres not stated) | –
2 | – | CC(C)C[C@H](NC(=O)Cc1ccc(Cl)c(Cl)c1)N1CCC(CCc2ccccc2)N2C[C@H](N)C[C@H]2C1=O (some centres not stated) | in the range around 5.5 µM
